Experimental data reported in patent US8476235B2 (Apotex Technologies Inc., priority 2006, dated 2013).
In brackets after ≈: the same amount, converted by molar mass. Read-outs that look alike come from different tables or passages of the source. Blank lines part the entries; values can stand above or below the compound they belong to.

How the values were obtained:
water solubility = format: physicochemical; conditions: in water, organic solvent free
[1] = speciation calculation using experimentally determined pKas (FIG. 8); format: physicochemical; conditions: pH 2.7, concentration 0.5M
Source text: FIG. 8 illustrates the speciation calculation of the dipeptide H-D-iGlu-D-Trp-OH and its salt using experimentally determined pKas of the acid and amine groups. LH2 is the diacid form of the peptide H-D-iGlu-D-Trp-OH, LH is the mono carboxylic acid salt of H-D-iGlu-D-Trp-OH. An example of such is the mono ammonium salt. L refers to the diacid salt form and one such example is the disodium salt of the peptide H-D-iGlu-D-Trp-OH.
The pKas of the acid and amine groups of H-D-iGlu-D-Trp-OH are experimentally determined. In FIG. 8, LH2 is thymodepressin, LH is the monocarboxylic acid salt, L is the dicarboxylic acid salt, and LH3 is the acid addition salt of thymodepressin. The X axis provides the pH of the solution. The Y axis provides the % formation relative to L (the default terminology of the software) and reports the molar fraction of the species present at a particular pH. The concentration of 0.5M is used to reflect the equivalency of 1 gm of thymodepressin in 6 ml water during isolation purposes. […] For this reason, thymodepressin precipitates at pH 2.7 and can be filtered. The mother liquor can be concentrated to obtain a second crop of thymodepressin. The plot confirms the theoretical prediction that the diacid form of H-D-iGlu-D-Trp-OH predominates at pH of about 2.5 to about 3.0, which is the pH for the isolation of the diacid from water as a precipitate. […]

pH of solution = format: physicochemical; conditions: in solution
[2] = solid form, cited from earlier work
[3] = HPLC method B
Experimental: In method B, the samples are analyzed with a normal reverse phase column, there is virtually no difference in the retention times of the samples.

water solubility (water solubility; listed as H-D-iGlu-D-Trp-OH): < 23 mg per mL
water solubility (water solubility; listed as crystalline thymodepressin): about 20 mg per mL
solubility (water solubility; water): ~23 mg/mL (≈ 69 mM)
molar fraction present as dicarboxylic acid form (LH2) [1]: about 75%
pH of a solution (pH of solution): about 3
Compound: N[C@H](CCC(=O)N[C@H](Cc1c[nH]c2ccccc12)C(=O)O)C(=O)O [thymodepressin, D-isoglutamyl-D-tryptophan]

Compound: D-isoglutamyl-D-tryptophan disodium salt
hygroscopicity (in words) ([2]; listed as D-isoglutamyl-D-tryptophan disodium salt): hygroscopic
hygroscopicity (in words) ([2]; disodium salt): extremely hygroscopic

purity at 254 nm after 2 years of storage [3]: 99.8%
Compound: D-isoglutamyl-D-tryptophan, mono ammonium salt (1:1)
